These compounds were tested against T1, Recombinant human liver GK1 (GST-GK) (Homo sapiens, UniProt P35557) (assay: In vitro glucokinase activity (G6PDH-coupled NADH assay)). Conditions: 30° C., 5 mM D-glucose, 10% DMSO.
T1 construct: made in house; host or cells: E. coli
T1 sequence (P35557 1-466 isoform P35557-2): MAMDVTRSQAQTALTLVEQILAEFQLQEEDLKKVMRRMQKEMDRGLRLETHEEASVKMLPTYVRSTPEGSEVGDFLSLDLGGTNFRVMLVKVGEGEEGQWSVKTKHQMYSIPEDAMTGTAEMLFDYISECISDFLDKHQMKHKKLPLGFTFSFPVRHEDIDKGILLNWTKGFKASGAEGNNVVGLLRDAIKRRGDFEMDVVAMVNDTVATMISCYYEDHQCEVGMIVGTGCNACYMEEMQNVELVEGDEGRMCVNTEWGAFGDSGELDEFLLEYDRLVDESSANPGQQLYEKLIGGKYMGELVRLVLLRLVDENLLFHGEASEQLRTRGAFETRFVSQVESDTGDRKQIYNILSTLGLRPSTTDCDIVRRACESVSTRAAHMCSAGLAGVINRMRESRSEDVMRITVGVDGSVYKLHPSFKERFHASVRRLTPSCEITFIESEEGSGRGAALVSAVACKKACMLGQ
Format: biochemical
How it was run: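 Activation measured as the rate of OD340 rise from G6PDH-coupled NADH production, relative to 10% DMSO control, reported as SC1.5 (concentration for 50% activity increase). Conditions: 30° C, pH 7.1 Hepes, 5 mM glucose, 1 mM ATP, purified recombinant GST-human GK1, compound preincubated 10 min before enzyme addition.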

SMILES | SC1.5 (concentration of activator that produced a 50% increase in the activity of GK)
COc1cccc(OC2=CC(=O)N([C@@H](CC3CCCCC3)C(=O)Nc3ccn(CC(C)(C)O)n3)C2)c1OC [Example 199, (S)-3-cyclohexyl-2-[4-(2,3-dimethoxy-phenoxy)-2-oxo-2,5-dihydro-pyrrol-1-yl]-N-[1-(2-hydroxy-2-methyl-propyl)-1H-pyrazol-3-yl]-propionamide] | 0.07 µM
CC(C)C[C@@H](C(=O)Nc1ccn(CC(C)(C)O)n1)N1CC(Oc2cccc(C#N)c2)=CC1=O [Example 138, (S)-2-[4-(3-Cyano-phenoxy)-2-oxo-2,5-dihydro-pyrrol-1-yl]-4-methyl-pentanoic acid [1-(2-hydroxy-2-methyl-propyl)-1H-pyrazol-3-yl]-amide] | 3.733 µM
CC(C)NC1=CC(=O)N([C@@H](CC2CCCC2)C(=O)Nc2ccn(CC(C)(C)O)n2)C1 [Example 234, (S)-3-cyclopentyl-N-[1-(2-hydroxy-2-methyl-propyl)-1H-pyrazol-3-yl]-2-(4-isopropylamino-2-oxo-2,5-dihydro-pyrrol-1-yl)-propionamide] | 4.624 µM
O=C(Nc1ccn(C[C@@H](O)CO)n1)[C@H](Cc1ccc(F)cc1)N1CC(Oc2ccccc2Cl)=CC1=O [Example 187, (S)-2-[4-(2-chloro-phenoxy)-2-oxo-2,5-dihydro-pyrrol-1-yl]-N-[1-((R)-2,3-dihydroxy-propyl)-1H-pyrazol-3-yl]-3-(4-fluorophenyl)-propionamide] | 0.771 µM
COc1ccccc1OC1=CC(=O)N(C(COC(C)(C)C)C(=O)Nc2ccn(CC(C)(C)O)n2)C1 (stereo not drawn) [Example 35, 3-t-Butoxy-N-[1-(2-hydroxy-2-methyl-propyl)-1H-pyrazol-3-yl]-2-[4-(2-methoxy-phenoxy)-2-oxo-2,5-dihydro-pyrrol-1-yl]-propionamide] | 9.491 µM
CC(CC(C(=O)Nc1ccn(CC(C)(C)O)n1)N1CC(Oc2ccccc2Cl)=CC1=O)C(F)(F)F (stereo not drawn) [Example 226, 2-[4-(2-Chloro-phenoxy)-2-oxo-2,5-dihydro-pyrrol-1-yl]-5,5,5-trifluoro-4-methyl-pentanoic acid [1-(2-hydroxy-2-methyl-propyl)-1H-pyrazol-3-yl]-amide] | 0.944 µM
COc1cccc(OC2=CC(=O)N([C@@H](CC3CCCCC3)C(=O)Nc3ccn(CC(C)(C)O)n3)C2)c1 [Example 208, (S)-3-cyclohexyl-N-[1-(2-hydroxy-2-methyl-propyl)-1H-pyrazol-3-yl]-2-[4-(3-methoxy-phenoxy)-2-oxo-2,5-dihydro-pyrrol-1-yl]-propionamide] | 0.012 µM
COc1ccccc1OC1=CC(=O)N([C@@H](CC2CCCCC2)C(=O)Nc2ccn(C[C@H](O)CO)n2)C1 [Example 30, (S)-3-Cyclohexyl-N-[1-((S)-2,3-dihydroxy-propyl)-1H-pyrazol-3-yl]-2-[4-(2-methoxy-phenoxy)-2-oxo-2,5-dihydro-pyrrol-1-yl]-propionamide] | 0.031 µM
CC(C)(O)Cn1ccc(NC(=O)C(C[C@H]2C[C@H](C)C2)N2CC(Oc3ccccc3Cl)=CC2=O)n1 (stereo partly drawn) [Example 214, 2-[4-(2-Chloro-phenoxy)-2-oxo-2,5-dihydro-pyrrol-1-yl]-N-[1-(2-hydroxy-2-methyl-propyl)-1H-pyrazol-3-yl]-3-(trans-3-methyl-cyclobutyl)-propionamide] | 0.043 µM
COC1=CC(=O)N([C@@H](CC2CCCC2)C(=O)Nc2ccn(C)n2)C1 [Example 6, (S)-3-Cyclopentyl-2-(4-methoxy-2-oxo-2,5-dihydro-pyrrol-1-yl)-N-(1-methyl-1H-pyrazol-3-yl)-propionamide] | 12.645 µM
CCO[C@@H](C)C[C@@H](C(=O)Nc1ccn(CC(C)(C)O)n1)N1CC(Oc2cccc(Cl)c2Cl)=CC1=O [Example 95, (2S,4S)-2-[4-(2,3-Dichloro-phenoxy)-2-oxo-2,5-dihydro-pyrrol-1-yl]-4-ethoxy-pentanoic acid [1-(2-hydroxy-2-methyl-propyl)-1H-pyrazol-3-yl]-amide] | 0.703 µM
CC(C)C[C@@H](C(=O)Nc1nc(C2CC2)ns1)N1CC(Oc2ccccc2Cl)=CC1=O [Example 105, (S)-2-[4-(2-Chloro-phenoxy)-2-oxo-2,5-dihydro-pyrrol-1-yl]-4-methyl-pentanoic acid (3-cyclopropyl-[1,2,4]thiadiazol-5-yl)-amide] | > 30 µM
CCOc1cccc(OC2=CC(=O)N([C@@H](CC(C)C)C(=O)Nc3ccn(CC(C)(C)O)n3)C2)c1 [Example 163, (S)-2-[4-(3-Ethoxy-phenoxy)-2-oxo-2,5-dihydro-pyrrol-1-yl]-4-methyl-pentanoic acid [1-(2-hydroxy-2-methyl-propyl)-1H-pyrazol-3-yl]-amide] | 0.239 µM

Next, values leading:

SC1.5 (concentration of activator that produced a 50% increase in the activity of GK) | SMILES
1.312 µM | CCOc1ccccc1OC1=CC(=O)N([C@@H](CC(C)C)C(=O)Nc2ccn(C[C@@H](O)CO)n2)C1.Cl [Example 84, (S)-2-[4-(2-Ethoxy-phenoxy)-2-oxo-2,5-dihydro-pyrrol-1-yl]-4-methyl-pentanoic acid [1-((R)-2,3-dihydroxy-propyl)-1H-pyrazol-3-yl]-amide Hydrochloride]
0.172 µM | C=Cc1cccc(OC2=CC(=O)N([C@@H](CC(C)C)C(=O)Nc3cnccn3)C2)c1F [Example 154, (S)-2-[4-(2-Fluoro-3-vinyl-phenoxy)-2-oxo-2,5-dihydro-pyrrol-1-yl]-4-methyl-pentanoic acid pyrazin-2-ylamide]
0.212 µM | CC(C)C[C@@H](C(=O)Nc1ccn(C[C@@H](O)CO)n1)N1CC(Oc2cccc3c2CCCC3)=CC1=O [Example 98, (S)-4-Methyl-2-[2-oxo-4-(5,6,7,8-tetrahydro-naphthalen-1-yloxy)-2,5-dihydro-pyrrol-1-yl]-pentanoic acid [1-((R)-2,3-dihydroxy-propyl)-1H-pyrazol-3-yl]-amide]
0.351 µM | CC(C)C[C@@H](C(=O)Nc1ccn(C[C@@H]2COC(C)(C)O2)n1)N1CC(Oc2cccc(Br)c2F)=CC1=O [Example 128, (S)-2-[4-(3-Bromo-2-fluoro-phenoxy)-2-oxo-2,5-dihydro-pyrrol-1-yl]-4-methyl-pentanoic acid [1-((R)-2,2-dimethyl-[1,3]dioxolan-4-yl-methyl)-1H-pyrazol-3-yl]-amide]
0.336 µM | Cc1ccccc1OC1=CC(=O)N([C@@H](CC(C)C)C(=O)Nc2ccn(C[C@@H](O)CO)n2)C1 [Example 124, (S)-4-Methyl-2-(2-oxo-4-o-tolyloxy-2,5-dihydro-pyrrol-1-yl)-pentanoic acid [1-((R)-2,3-dihydroxy-propyl)-1H-pyrazol-3-yl]-amide]
0.063 µM | CCOc1cccc(OC2=CC(=O)N([C@@H](CC(C)C)C(=O)Nc3cnc([C@H](O)CO)cn3)C2)c1F [Example 151, (S)-2-[4-(3-Ethoxy-2-fluoro-phenoxy)-2-oxo-2,5-dihydro-pyrrol-1-yl]-4-methyl-pentanoic acid [5-((S)-1,2-dihydroxy-ethyl)-pyrazin-2-yl]-amide]
8.055 µM | CCOc1ccccc1OC1=CC(=O)N([C@@H](CC(C)C)C(=O)Nc2ccn(C[C@@H]3COC(C)(C)O3)n2)C1 [Example 83, (S)-2-[4-(2-Ethoxy-phenoxy)-2-oxo-2,5-dihydro-pyrrol-1-yl]-4-methyl-pentanoic acid [1-((R)-2,2-dimethyl-[1,3]dioxolan-4-yl-methyl)-1H-pyrazol-3-yl]-amide]
0.307 µM | CCOc1cccc(OC2=CC(=O)N([C@@H](CC(C)C)C(=O)Nc3ccn(C[C@@H](O)CO)n3)C2)c1 [Example 162, (S)-2-[4-(3-Ethoxy-phenoxy)-2-oxo-2,5-dihydro-pyrrol-1-yl]-4-methyl-pentanoic acid [1-((R)-2,3-dihydroxy-propyl)-1H-pyrazol-3-yl]-amide]
0.932 µM | CCOc1ccccc1OC1=CC(=O)N([C@@H](CC(C)C)C(=O)Nc2ccn(CC(C)(C)O)n2)C1.Cl [Example 81, (S)-2-[4-(2-ethoxy-phenoxy)-2-oxo-2,5-dihydro-pyrrol-1-yl]-4-methyl pentanoic acid [1-(2-hydroxy-2-methyl-propyl)-1H-pyrazol-3-yl]-amide hydrochloride]
0.072 µM | COc1ccc(F)c(OC2=CC(=O)N([C@@H](CC(C)C)C(=O)Nc3ccn(C[C@@H](O)CO)n3)C2)c1F [Example 119, (S)-2-[4-(2,6-Difluoro-3-methoxy-phenoxy)-2-oxo-2,5-dihydro-pyrrol-1-yl]-4-methyl-pentanoic acid [1-((R)-2,3-dihydroxy-propyl)-1H-pyrazol-3-yl]-amide]

Same assay, conditions: at 30 μM test compound

fold act. @ 30 μM | SMILES
1.4 fold | CC(C)C[C@@H](C(=O)Nc1nc(C2CC2)ns1)N1CC(Oc2ccccc2Cl)=CC1=O [Example 105, (S)-2-[4-(2-Chloro-phenoxy)-2-oxo-2,5-dihydro-pyrrol-1-yl]-4-methyl-pentanoic acid (3-cyclopropyl-[1,2,4]thiadiazol-5-yl)-amide]

Source: patent US7741327B2 (Hoffmann-La Roche Inc., priority 2008, dated 2010)
